Data as given in patent US12011444B2, “N-substituted indole derivatives as PGE2 receptor modulators” (Idorsia Pharmaceuticals Ltd, priority 2015, dated 2024).

Experiments:
EP4 = EP4 (Homo sapiens (Human), UniProt P35408); experiment: hEP4 cAMP assay (BT549 breast cancer cells, HTRF cAMP); format: cell-based; settings: antagonistic activity; mean values where measured multiple times
Protocol: Plate is pre-incubated 45 minutes at room temperature. Subsequently, 2.5 microliters of PGE2 (final conc. 6 nM) are transferred into the assay plate. Plate is incubated 30 minutes at room temperature.

EP2 = EP2 (Homo sapiens (Human), UniProt P43116);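 also: antagonism of PGE2-stimulated cAMP accumulation in SF295 human glioblastoma cells with endogenous EP2, cAMP read by HTRF, expressed relative to DMSO control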
Chain of EP2 (P43116 whole entry): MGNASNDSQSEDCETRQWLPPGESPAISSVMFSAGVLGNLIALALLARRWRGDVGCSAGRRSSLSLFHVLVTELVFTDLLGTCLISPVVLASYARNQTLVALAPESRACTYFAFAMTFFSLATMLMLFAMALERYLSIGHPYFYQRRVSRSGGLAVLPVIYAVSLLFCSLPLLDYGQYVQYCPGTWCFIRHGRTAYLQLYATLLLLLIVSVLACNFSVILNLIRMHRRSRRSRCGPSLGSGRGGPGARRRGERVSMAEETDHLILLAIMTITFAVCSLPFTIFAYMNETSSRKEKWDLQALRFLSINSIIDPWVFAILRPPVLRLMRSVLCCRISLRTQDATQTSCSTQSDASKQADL

Chain of EP4 (P35408 whole entry): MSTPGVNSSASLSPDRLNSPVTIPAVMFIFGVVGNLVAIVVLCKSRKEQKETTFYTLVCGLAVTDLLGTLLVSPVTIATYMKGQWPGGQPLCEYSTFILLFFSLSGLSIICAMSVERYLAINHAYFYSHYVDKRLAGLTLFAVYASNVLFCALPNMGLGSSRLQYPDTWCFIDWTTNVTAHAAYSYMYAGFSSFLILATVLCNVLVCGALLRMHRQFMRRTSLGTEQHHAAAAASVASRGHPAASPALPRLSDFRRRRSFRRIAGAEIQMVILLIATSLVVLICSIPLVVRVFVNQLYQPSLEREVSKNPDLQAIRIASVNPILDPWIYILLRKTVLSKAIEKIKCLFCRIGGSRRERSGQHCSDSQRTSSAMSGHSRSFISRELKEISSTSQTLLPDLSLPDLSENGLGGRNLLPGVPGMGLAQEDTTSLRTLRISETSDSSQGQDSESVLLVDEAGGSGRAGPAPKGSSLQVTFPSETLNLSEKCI

| IC50 (EP4) [µM] | IC50 (EP2) [µM] | SMILES |
| --- | --- | --- |
| 0.51 | 0.012 | COc1ccc(F)c2c1cc(C)n2CCNc1cc(-c2ccc(-c3cc(C)no3)cc2)ncn1 [compound 716, [2-(7-Fluoro-4-methoxy-2-methyl-indol-1-yl)-ethyl]-{6-[4-(3-methyl-isoxazol-5-yl)-phenyl]-pyrimidin-4-yl}-amine] |
| 0.007 | 0.004 | COc1ccc(F)c2c1cc(C)n2CCNc1cc(-c2cc(OC(C)C)c(C(=O)O)s2)ncn1 [compound 675] |
| 0.139 | 0.022 | CCCOc1cc(-c2cc(NCCn3c(C)cc4c(OC)ccc(F)c43)ncn2)cc(F)c1C(=O)O [compound 610] |
| 0.706 | 0.294 | Cc1ccc(F)c2c1cc(C)n2CCNc1cc(-c2ccc(-c3cnc(CCC(=O)O)o3)cc2)ncn1 [compound 643] |
| 0.035 | 0.005 | COc1ccc(F)c2c1cc(C)n2CCNc1cc(-c2cc(Cl)c(C(=O)O)c(OCC(C)C)c2)ncn1 [compound 690] |
| 0.077 | 0.015 | Cc1cc(F)cc2c1cc(C)n2CCNc1cc(-c2ccc3[nH]ccc3c2)ncn1 [compound 697, [2-(6-Fluoro-2,4-dimethyl-indol-1-yl)-ethyl]-[6-(1H-indol-5-yl)-pyrimidin-4-yl]-amine] |
| 0.842 | 0.239 | Cc1nc2cc(-c3cc(NCCn4c(C)cc5c(C)ccc(F)c54)ncn3)ccc2o1 [compound 686] |

Continued, compound first:

| SMILES | IC50 (EP4) [µM] | IC50 (EP2) [µM] |
| --- | --- | --- |
| COc1ccc(F)c2c1cc(C)n2CCNc1cc(-c2ccc(-c3nc(N)sc3C)cc2)ncn1 [compound 458, {6-[4-(2-Amino-5-methyl-thiazol-4-yl)-phenyl]-pyrimidin-4-yl}-[2-(7-fluoro-4-methoxy-2-methyl-indol-1-yl)-ethyl]-amine] | 0.074 | 0.025 |
| Cc1cc(F)c(F)c2c1cc(C)n2CCNc1cc(-c2cc(C(F)(F)F)c(C(=O)O)s2)ncn1 [compound 420] | 0.093 | 0.095 |
| CCCc1cc(-c2cc(NCCn3c(C)cc4cc(Cl)cc(F)c43)ncn2)cc(F)c1C(=O)O [compound 425] | 0.521 | 0.073 |
| COc1ccc(F)c2c1cc(C)n2CCNc1cc(-c2ccc(C(=O)O)c(OC3CCCC3)c2)ncn1 [compound 595, 2-Cyclopentyloxy-4-{6-[2-(7-fluoro-4-methoxy-2-methyl-indol-1-yl)-ethylamino]-pyrimidin-4-yl}-benzoic acid] | 0.073 | 0.01 |
| Cc1ccc(F)c2c1cc(C)n2CCNc1cc(-c2ccc(-c3nc(C(=O)O)cs3)cc2)ncn1 [compound 546] | 0.057 | 0.016 |
| COc1ccc(F)c2c1cc(C)n2CCNc1cc(-c2ccc(-c3csc(C(=O)O)n3)cc2)ncn1 [compound 476, 4-(4-{6-[2-(7-Fluoro-4-methoxy-2-methyl-indol-1-yl)-ethylamino]-pyrimidin-4-yl}-phenyl)-thiazole-2-carboxylic acid] | 0.048 | 0.018 |
| COc1ccc(F)c2c1cc(C)n2CCNc1cc(-c2ccc(-c3nnn[nH]3)s2)ncn1 [Example 793, [2-(7-Fluoro-4-methoxy-2-methyl-indol-1-yl)-ethyl]-{6-[5-(1H-tetrazol-5-yl)-thiophen-2-yl]-pyrimidin-4-yl}-amine] | 0.018 | 0.003 |
| COc1ccc(F)c2c1cc(C)n2CCNc1cc(-c2ccc(C(=O)O)c(OC(F)(F)F)c2)ncn1 [compound 606] | 0.186 | 0.008 |
| COc1cc(-c2cc(NCCn3c(C)cc4c(C)ccc(F)c43)ncn2)ccc1-c1nnn[nH]1 [Example 748, [2-(7-Fluoro-2,4-dimethyl-indol-1-yl)-ethyl]-{6-[3-methoxy-4-(1H-tetrazol-5-yl)-phenyl]-pyrimidin-4-yl}-amine] | 0.17 | 0.07 |
| Cc1cc2ccccc2n1CCNc1cc(-c2ccc3c(=O)[nH]oc3c2)ncn1 [Example 774, 6-{6-[2-(2-Methyl-indol-1-yl)-ethylamino]-pyrimidin-4-yl}-benzo[d]isoxazol-3-one] | 0.637 | 0.004 |
